Data reported in ChEMBL document CHEMBL1201862, “PubChem BioAssay data set” (2004).
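Interpolation was linear, between the two tested concentrations surrounding the appropriate level; five concentrations were tested over 48 hours in 96-well plates. Here, GI50 denotes the concentration required for 50% inhibition of growth.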 Activity calls are given as the source filed them. No stated cut-off is given here; in the data, active = GI50 up to about 1.1 µM and inactive = higher.

Experiments:
Assay in all cases: inhibition of tumour cell growth, NCI panel, 48 h
[1] = test system: A549
[2] = test system: DU-145
[3] = test system: HL-60
[4] = test system: HOP-62
[5] = test system: KM12
[6] = test system: M14
[7] = test system: Malme-3M
[8] = test system: NCI/ADR-RES
[9] = test system: OVCAR-5
[10] = test system: OVCAR-8
[11] = test system: RPMI-8226
[12] = test system: SF-539
[13] = test system: SK-MEL-5
[14] = test system: SK-OV-3
[15] = test system: SW-620
[16] = test system: UACC-257
[17] = test system: OVCAR-3
[18] = test system: SK-MEL-2
[19] = test system: UACC-62
[20] = test system: MDA-N

Measured: GI50

COc1cc(C(=O)O[C@H]2CCC3CCC2N3C)cc(OC)c1OC (stereo not given in full)
inactive: [1] > 100 µM | [2] > 100 µM | [3] 63.7 µM | [4] > 100 µM | [5] > 100 µM | [6] > 100 µM | [7] > 100 µM | [8] > 100 µM | [9] > 100 µM | [10] > 100 µM | [11] > 100 µM | [12] > 100 µM | [13] > 100 µM | [14] > 100 µM | [15] > 100 µM | [16] > 100 µM

O=C(NCP(=O)(Oc1ccccc1)Oc1ccccc1)OCc1ccccc1
inactive: [1] 70.8 µM | [3] > 100 µM | [4] 39.8 µM | [5] > 100 µM | [6] > 100 µM | [7] 77.6 µM | [8] > 100 µM | [17] 55.1 µM | [9] > 100 µM | [10] > 100 µM | [11] > 100 µM | [18] > 100 µM | [13] > 100 µM | [14] 33.1 µM | [15] > 100 µM | [16] > 100 µM | [19] 62.8 µM

Cc1cccc(C)c1N1C(=O)C(=O)C(c2nc3ccccc3s2)/C(=N\N)C1=O (stereo not given)
inactive: [1] > 100 µM | [3] 36.3 µM | [4] > 100 µM | [5] 52 µM | [6] > 100 µM | [7] > 100 µM | [17] > 100 µM | [9] > 100 µM | [10] > 100 µM | [11] 39.9 µM | [12] > 100 µM | [18] > 100 µM | [13] > 100 µM | [14] > 100 µM | [15] > 100 µM | [16] > 100 µM | [19] 77.4 µM

CCOC(=O)C(OCC1CC=CCC1)Sc1ccccc1 (stereo not given)
inactive: [1] > 100 µM | [3] > 100 µM | [4] > 100 µM | [5] > 100 µM | [6] > 100 µM | [7] > 100 µM | [17] > 100 µM | [9] > 100 µM | [10] > 100 µM | [11] > 100 µM | [12] > 100 µM | [18] > 100 µM | [13] > 100 µM | [14] > 100 µM | [15] > 100 µM | [16] > 100 µM | [19] > 100 µM

C/C(=N\NC(N)=S)c1ccc(C)cc1C
inactive: [1] 53.5 µM | [3] 36 µM | [4] > 100 µM | [5] 60.8 µM | [6] > 100 µM | [7] > 100 µM | [17] 75.7 µM | [9] 27 µM | [10] > 100 µM | [11] > 100 µM | [12] > 100 µM | [18] 37.2 µM | [13] 21.7 µM | [14] > 100 µM | [15] > 100 µM | [16] 38.4 µM | [19] 38.9 µM

Oc1ccc(Oc2cc3c(cc2Oc2ccc(O)cc2)-c2nc-3nc3[nH]c(nc4nc(nc5[nH]c(n2)c2cc(Oc6ccc(O)cc6)c(Oc6ccc(O)cc6)cc52)-c2cc(Oc5ccc(O)cc5)c(Oc5ccc(O)cc5)cc2-4)c2cc(Oc4ccc(O)cc4)c(Oc4ccc(O)cc4)cc32)cc1
inactive: [1] > 100 µM | [4] > 100 µM | [5] > 100 µM | [6] 16.7 µM | [20] > 100 µM | [7] 19.1 µM | [8] > 100 µM | [17] > 100 µM | [9] 85.5 µM | [10] > 100 µM | [12] > 100 µM | [13] 60.1 µM | [14] > 100 µM | [15] > 100 µM | [16] > 100 µM | [19] 76 µM

COc1cccc(-c2cc(O)c3cc(NC(C)=O)ccc3n2)c1
inactive: [1] 61.7 µM | [4] 32.4 µM | [5] 23.5 µM | [6] 27.2 µM | [7] 5.05 µM | [8] 62.8 µM | [9] 59.4 µM | [10] 25.6 µM | [11] 42.9 µM | [12] 14.2 µM | [13] 14.6 µM | [14] > 100 µM | [15] 47.8 µM | [16] > 100 µM | [19] 17.4 µM

Cc1ccc(NC(=O)C(=O)C(C2C(C)CC(=O)C2CC(=O)O)[N+](=O)[O-])cc1 (stereo not given)
inactive: [1] > 100 µM | [3] > 100 µM | [4] > 100 µM | [5] > 100 µM | [6] > 100 µM | [7] > 100 µM | [17] > 100 µM | [9] > 100 µM | [10] > 100 µM | [11] > 100 µM | [12] > 100 µM | [18] > 100 µM | [13] > 100 µM | [14] > 100 µM | [15] > 100 µM | [16] > 100 µM | [19] > 100 µM

COC1[C@H](NC(=O)OC(C)(C)C)C(=O)N1Cc1ccccc1 (stereo not given in full)
inactive: [1] > 100 µM | [3] > 100 µM | [4] > 100 µM | [5] > 100 µM | [6] > 100 µM | [7] > 100 µM | [17] > 100 µM | [9] > 100 µM | [10] > 100 µM | [11] > 100 µM | [12] > 100 µM | [18] > 100 µM | [13] > 100 µM | [14] > 100 µM | [15] > 100 µM | [16] > 100 µM | [19] > 100 µM

O=C1C/C(Br)=C\c2ccccc2-c2ccccc21
inactive: [1] 8.26 µM | [3] 1.71 µM | [4] 3.05 µM | [5] 3.52 µM | [6] 2.07 µM | [7] 2.16 µM | [17] 2.45 µM | [9] 2.69 µM | [10] 2.19 µM | [11] 1.52 µM | [12] 2.16 µM | [18] 2.7 µM | [13] 5.4 µM | [14] 3.03 µM | [15] 1.39 µM | [16] 4.19 µM | [19] 2.23 µM

O=C1NC2=C(CCCCC/C2=N\O)C12CCCCCC2
inactive: [1] > 100 µM | [3] > 100 µM | [4] > 100 µM | [5] > 100 µM | [6] > 100 µM | [7] > 100 µM | [17] > 100 µM | [9] > 100 µM | [10] > 100 µM | [11] > 100 µM | [12] > 100 µM | [18] > 100 µM | [13] > 100 µM | [14] > 100 µM | [15] > 100 µM | [16] > 100 µM | [19] > 100 µM

CCOC(=O)N(c1ccccc1)c1cc(=O)n2ccccc2n1
inactive: [1] > 100 µM | [2] > 100 µM | [3] > 100 µM | [4] > 100 µM | [5] > 100 µM | [7] > 100 µM | [8] > 100 µM | [17] > 100 µM | [9] > 100 µM | [10] > 100 µM | [11] > 100 µM | [12] > 100 µM | [13] > 100 µM | [14] > 100 µM | [15] > 100 µM | [16] > 100 µM | [19] > 100 µM

O=C1C=C(O)C(=Cc2c(O)cc(O)cc2O)C(O)=C1
inactive: [1] > 100 µM | [3] > 100 µM | [4] > 100 µM | [5] > 100 µM | [6] > 100 µM | [7] > 100 µM | [17] > 100 µM | [9] > 100 µM | [10] > 100 µM | [11] > 100 µM | [12] > 100 µM | [18] > 100 µM | [13] > 100 µM | [14] > 100 µM | [15] > 100 µM | [16] > 100 µM | [19] > 100 µM

C/C(=C\CO)CC/C=C(\C)CNc1c(F)c(F)c(F)c(F)c1F
inactive: [1] 28.7 µM | [2] 43.6 µM | [3] 28.7 µM | [4] 24.7 µM | [5] 27.5 µM | [6] 38.2 µM | [7] 27.4 µM | [8] 30.8 µM | [17] 20.2 µM | [9] 36.5 µM | [10] 19.8 µM | [11] 14 µM | [12] 20.8 µM | [18] 20.7 µM | [13] 15.8 µM | [14] 63.8 µM | [15] 33.2 µM | [16] 21.3 µM | [19] 17.2 µM

O=C(Nc1nc2ncn(CCO)c2c(=S)[nH]1)c1ccccc1
inactive: [1] > 100 µM | [3] > 100 µM | [4] > 100 µM | [5] > 100 µM | [6] > 100 µM | [7] > 100 µM | [17] > 100 µM | [9] > 100 µM | [10] > 100 µM | [11] > 100 µM | [12] > 100 µM | [18] > 100 µM | [13] > 100 µM | [14] > 100 µM | [15] > 100 µM | [16] > 100 µM | [19] > 100 µM

CN(C)CCC[N+]1=Nc2cccc3cccc(c23)N1
inactive: [1] > 100 µM | [3] 18.2 µM | [4] > 100 µM | [5] > 100 µM | [6] 21.1 µM | [7] > 100 µM | [17] > 100 µM | [9] > 100 µM | [10] 46.6 µM | [11] 22.8 µM | [12] 99.5 µM | [18] > 100 µM | [13] 14.1 µM | [14] > 100 µM | [15] 10.4 µM | [16] 48.5 µM | [19] 34.1 µM
